Test results taken from patent US20140205537A1, “LRRK2 INHIBITORS” (ZENOBIA THERAPEUTICS, INC., priority 2011, published 2014).

Experiments:
[1] = molecular target: T1, IRAK4 (Homo sapiens, UniProt Q9NWZ3); experiment: Kinase selectivity panel: IRAK4; type: biochemical
T1 sequence (Q9NWZ3 1-460): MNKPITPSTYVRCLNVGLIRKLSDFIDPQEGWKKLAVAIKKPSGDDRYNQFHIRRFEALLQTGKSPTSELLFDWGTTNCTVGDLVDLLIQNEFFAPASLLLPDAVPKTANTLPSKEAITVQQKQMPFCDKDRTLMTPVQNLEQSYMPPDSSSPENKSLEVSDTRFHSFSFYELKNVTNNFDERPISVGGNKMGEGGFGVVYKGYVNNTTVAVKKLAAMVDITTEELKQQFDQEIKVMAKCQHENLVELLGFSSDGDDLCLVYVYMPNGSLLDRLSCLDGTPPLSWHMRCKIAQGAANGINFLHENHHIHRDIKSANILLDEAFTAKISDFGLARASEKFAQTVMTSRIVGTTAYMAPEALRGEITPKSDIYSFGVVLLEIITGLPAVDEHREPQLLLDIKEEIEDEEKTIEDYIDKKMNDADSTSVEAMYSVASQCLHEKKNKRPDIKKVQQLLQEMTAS

[2] = molecular target: LCK (Homo sapiens, UniProt P06239); experiment: Kinase selectivity panel: LCK; type: biochemical
[3] = molecular target: ALK4 (Homo sapiens, UniProt P36896); experiment: Kinase selectivity panel: ALK4; type: biochemical
[4] = molecular target: G2019S LRRK2 (Homo sapiens, UniProt Q5S007, G2019S); experiment: DiscoveRx KINOMEscan binding constant (Kd); set-up: purchased DiscoveRx (KINOMEscan service); host or cells: E. coli BL21-derived host (T7 phage) or HEK-293; conditions: numeric value
Procedure: Compounds of formulas (II), (I), (I-A), (I-B), (I-C), (I-D), (I-D-1), (I-D-2), (I-E), (I-F), (I-G), (I-H), (I-I), (I-I-1), (I-I-2), (I-J), (I-K), (I-L), (I-M), (I-N), (I-Z-1), (I-Z-2), (I-Z-2-a), (I-Z-2-b), (I-Z-2-c), (I-Z-2-d), (I-Z-3-a), (I-Z-3-b), (I-Z-3-c), or (I-Z-3-d) were tested using DiscoveRx's KINOMEscan™ technology to measure a binding constant (Kd) to wild type and G2019S LRRK2. Kinase-tagged T7 phage strains were prepared in an E. coli host derived from the BL21 strain. E. coli were grown to log-phase and infected with T7 phage and incubated with shaking at 32° C. until lysis. The lysates were centrifuged and filtered to remove cell debris. The remaining kinases were produced in HEK-293 cells and subsequently tagged with DNA for qPCR detection. Streptavidin-coated magnetic beads were treated with biotinylated small molecule ligands for 30 minutes at room temperature to generate affinity resins for kinase assays. The liganded beads were blocked with excess biotin and washed with blocking buffer (SeaBlock (Pierce), 1% BSA, 0.05% Tween 20, 1 mM DTT) to remove unbound ligand and to reduce non-specific binding. Binding reactions were assembled by combining kinases, liganded affinity beads, and test compounds in 1× binding buffer (20% SeaBlock, 0.17×PBS, 0.05% Tween 20, 6 mM DTT). All reactions were performed in polystyrene 96-well plates in a final volume of 0.135 ml. The assay plates were incubated at room temperature with shaking for 1 hour and the affinity beads were washed with wash buffer (lx PBS, 0.05% Tween 20). The beads were then re-suspended in elution buffer (lx PBS, 0.05% Tween 20, 0.5 μM non-biotinylated affinity ligand) and incubated at room temperature with shaking for 30 minutes. The kinase concentration in the eluates was measured by qPCR. An 11-point 3-fold serial dilution of each test compound was prepared in 100% DMSO at 100× final test concentration and subsequently diluted to 1× in the assay (final DMSO concentration=[…]). Most Kds were determined using a compound top concentration=30,000 nM.

[5] = molecular target: IGF1R (Homo sapiens, UniProt P08069); experiment: Kinase selectivity panel: IGF1R; type: biochemical
[6] = molecular target: EPHA2 (Homo sapiens, UniProt P29317); experiment: Kinase selectivity panel: EPHA2; type: biochemical
EPHA2, sequence (P29317 24-976, species assumed): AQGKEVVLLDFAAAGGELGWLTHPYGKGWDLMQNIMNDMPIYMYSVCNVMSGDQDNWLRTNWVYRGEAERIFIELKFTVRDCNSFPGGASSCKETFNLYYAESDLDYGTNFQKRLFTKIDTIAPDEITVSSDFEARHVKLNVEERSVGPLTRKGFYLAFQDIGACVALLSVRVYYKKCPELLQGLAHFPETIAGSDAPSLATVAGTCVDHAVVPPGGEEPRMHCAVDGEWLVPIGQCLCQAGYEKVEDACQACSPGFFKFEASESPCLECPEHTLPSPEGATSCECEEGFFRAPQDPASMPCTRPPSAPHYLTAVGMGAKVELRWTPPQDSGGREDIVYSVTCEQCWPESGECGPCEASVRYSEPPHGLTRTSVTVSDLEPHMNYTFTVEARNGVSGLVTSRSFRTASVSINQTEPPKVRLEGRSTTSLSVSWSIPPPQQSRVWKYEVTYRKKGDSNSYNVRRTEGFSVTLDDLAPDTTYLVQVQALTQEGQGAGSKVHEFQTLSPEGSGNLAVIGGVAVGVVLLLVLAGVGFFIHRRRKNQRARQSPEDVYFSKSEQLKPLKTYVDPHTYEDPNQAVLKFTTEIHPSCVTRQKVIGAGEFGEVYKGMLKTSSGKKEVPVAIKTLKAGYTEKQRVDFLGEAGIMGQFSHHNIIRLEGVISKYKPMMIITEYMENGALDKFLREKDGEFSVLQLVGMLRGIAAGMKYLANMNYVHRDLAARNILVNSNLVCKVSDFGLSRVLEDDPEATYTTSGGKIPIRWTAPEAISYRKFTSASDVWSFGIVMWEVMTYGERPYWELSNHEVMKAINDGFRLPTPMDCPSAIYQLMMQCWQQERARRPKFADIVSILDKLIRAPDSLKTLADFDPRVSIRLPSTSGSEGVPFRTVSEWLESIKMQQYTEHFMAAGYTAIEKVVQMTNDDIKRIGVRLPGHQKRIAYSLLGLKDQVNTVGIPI

[7] = molecular target: RSK2 (Homo sapiens, UniProt P51812); experiment: Kinase selectivity panel: RSK2; type: biochemical
RSK2, sequence (P51812 whole entry, species assumed): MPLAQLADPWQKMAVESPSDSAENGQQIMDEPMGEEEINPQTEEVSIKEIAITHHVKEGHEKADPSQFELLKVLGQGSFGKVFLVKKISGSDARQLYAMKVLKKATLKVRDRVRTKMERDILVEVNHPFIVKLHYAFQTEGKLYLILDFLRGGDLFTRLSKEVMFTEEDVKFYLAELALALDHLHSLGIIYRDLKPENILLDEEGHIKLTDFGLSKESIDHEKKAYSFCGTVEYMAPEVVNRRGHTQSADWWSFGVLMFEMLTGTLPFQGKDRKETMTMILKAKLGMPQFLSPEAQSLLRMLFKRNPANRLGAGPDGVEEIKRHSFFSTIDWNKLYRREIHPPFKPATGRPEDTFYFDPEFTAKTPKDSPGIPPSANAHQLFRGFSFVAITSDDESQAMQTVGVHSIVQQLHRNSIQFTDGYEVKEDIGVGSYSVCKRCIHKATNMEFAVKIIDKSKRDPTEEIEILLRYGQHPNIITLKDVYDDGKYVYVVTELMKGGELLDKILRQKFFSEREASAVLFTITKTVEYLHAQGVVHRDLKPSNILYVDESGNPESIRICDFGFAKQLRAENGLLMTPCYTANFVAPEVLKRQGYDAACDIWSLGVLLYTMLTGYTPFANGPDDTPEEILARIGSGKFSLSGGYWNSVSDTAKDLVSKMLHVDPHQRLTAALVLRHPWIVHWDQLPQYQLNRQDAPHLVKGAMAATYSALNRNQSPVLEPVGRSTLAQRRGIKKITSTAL

[8] = molecular target: ABL1 (Homo sapiens, UniProt P00519); experiment: Kinase selectivity panel: ABL1; type: biochemical
ABL1, sequence (P00519 whole entry, species assumed): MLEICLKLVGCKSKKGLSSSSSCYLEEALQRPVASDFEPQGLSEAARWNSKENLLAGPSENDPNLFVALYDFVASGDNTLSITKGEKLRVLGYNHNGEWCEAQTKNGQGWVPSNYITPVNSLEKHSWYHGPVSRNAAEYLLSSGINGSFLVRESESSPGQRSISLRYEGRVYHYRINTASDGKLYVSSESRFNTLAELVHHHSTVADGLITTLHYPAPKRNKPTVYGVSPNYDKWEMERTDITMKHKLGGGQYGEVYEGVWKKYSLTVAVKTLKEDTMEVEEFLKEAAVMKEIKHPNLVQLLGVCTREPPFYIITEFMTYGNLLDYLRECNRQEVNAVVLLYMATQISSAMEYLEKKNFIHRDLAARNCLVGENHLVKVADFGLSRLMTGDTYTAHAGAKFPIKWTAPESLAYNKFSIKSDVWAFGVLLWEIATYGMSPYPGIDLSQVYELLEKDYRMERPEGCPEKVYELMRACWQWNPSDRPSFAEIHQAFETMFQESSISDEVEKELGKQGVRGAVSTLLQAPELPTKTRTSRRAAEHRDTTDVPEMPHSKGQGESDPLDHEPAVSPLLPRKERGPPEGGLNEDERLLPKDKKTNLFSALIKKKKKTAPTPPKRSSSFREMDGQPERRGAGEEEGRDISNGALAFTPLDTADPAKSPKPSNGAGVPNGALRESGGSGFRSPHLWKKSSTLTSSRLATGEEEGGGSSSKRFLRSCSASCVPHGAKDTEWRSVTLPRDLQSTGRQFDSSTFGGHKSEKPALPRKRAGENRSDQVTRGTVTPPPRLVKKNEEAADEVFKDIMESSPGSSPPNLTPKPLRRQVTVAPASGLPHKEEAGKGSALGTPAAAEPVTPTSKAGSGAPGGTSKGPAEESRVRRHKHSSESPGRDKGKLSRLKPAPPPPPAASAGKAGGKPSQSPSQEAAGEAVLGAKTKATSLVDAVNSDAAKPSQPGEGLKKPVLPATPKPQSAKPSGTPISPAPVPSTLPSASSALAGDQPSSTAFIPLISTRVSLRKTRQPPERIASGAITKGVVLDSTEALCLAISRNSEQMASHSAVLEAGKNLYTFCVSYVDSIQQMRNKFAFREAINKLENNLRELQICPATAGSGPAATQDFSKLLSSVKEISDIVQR

[9] = molecular target: ROCK1 (Homo sapiens, UniProt Q13464); experiment: Kinase selectivity panel: ROCK1; type: biochemical
[10] = molecular target: HGK (Homo sapiens, UniProt O95819); experiment: Kinase selectivity panel: HGK; type: biochemical
[11] = molecular target: KIT (Homo sapiens, UniProt P10721); experiment: Kinase selectivity panel: KIT; type: biochemical
[12] = molecular target: MEK1 (Homo sapiens, UniProt Q02750); experiment: Kinase selectivity panel: MEK1; type: biochemical
MEK1, sequence (Q02750 whole entry, species assumed): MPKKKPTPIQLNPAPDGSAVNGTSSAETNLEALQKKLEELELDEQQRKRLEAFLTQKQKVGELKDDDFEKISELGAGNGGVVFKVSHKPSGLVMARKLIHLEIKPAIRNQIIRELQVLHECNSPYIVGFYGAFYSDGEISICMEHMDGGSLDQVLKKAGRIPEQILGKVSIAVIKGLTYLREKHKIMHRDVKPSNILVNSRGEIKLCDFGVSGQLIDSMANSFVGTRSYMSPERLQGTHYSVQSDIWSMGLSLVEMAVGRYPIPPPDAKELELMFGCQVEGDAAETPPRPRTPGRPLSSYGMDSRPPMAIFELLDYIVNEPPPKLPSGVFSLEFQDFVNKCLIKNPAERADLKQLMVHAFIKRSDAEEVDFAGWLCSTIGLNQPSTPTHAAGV

[13] = molecular target: mTOR (Homo sapiens, UniProt P42345); experiment: Kinase selectivity panel: mTOR; type: biochemical
[14] = molecular target: PHKG2 (Homo sapiens, UniProt P15735); experiment: Kinase selectivity panel: PHKG2; type: biochemical
PHKG2, sequence (P15735 whole entry, species assumed): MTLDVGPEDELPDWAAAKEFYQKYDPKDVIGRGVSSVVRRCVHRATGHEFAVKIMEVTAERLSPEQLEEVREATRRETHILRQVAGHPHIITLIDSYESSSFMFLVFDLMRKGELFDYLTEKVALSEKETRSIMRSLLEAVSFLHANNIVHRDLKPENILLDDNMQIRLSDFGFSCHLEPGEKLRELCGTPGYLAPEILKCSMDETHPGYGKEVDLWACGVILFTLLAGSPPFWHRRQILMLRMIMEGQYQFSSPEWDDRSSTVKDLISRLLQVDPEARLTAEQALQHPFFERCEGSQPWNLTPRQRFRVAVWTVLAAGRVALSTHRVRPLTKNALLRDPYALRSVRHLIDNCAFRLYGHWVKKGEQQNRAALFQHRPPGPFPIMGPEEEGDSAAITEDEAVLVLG

[15] = molecular target: RET (Homo sapiens, UniProt P07949); experiment: Kinase selectivity panel: RET; type: biochemical
RET, sequence (P07949 29-1114, species assumed): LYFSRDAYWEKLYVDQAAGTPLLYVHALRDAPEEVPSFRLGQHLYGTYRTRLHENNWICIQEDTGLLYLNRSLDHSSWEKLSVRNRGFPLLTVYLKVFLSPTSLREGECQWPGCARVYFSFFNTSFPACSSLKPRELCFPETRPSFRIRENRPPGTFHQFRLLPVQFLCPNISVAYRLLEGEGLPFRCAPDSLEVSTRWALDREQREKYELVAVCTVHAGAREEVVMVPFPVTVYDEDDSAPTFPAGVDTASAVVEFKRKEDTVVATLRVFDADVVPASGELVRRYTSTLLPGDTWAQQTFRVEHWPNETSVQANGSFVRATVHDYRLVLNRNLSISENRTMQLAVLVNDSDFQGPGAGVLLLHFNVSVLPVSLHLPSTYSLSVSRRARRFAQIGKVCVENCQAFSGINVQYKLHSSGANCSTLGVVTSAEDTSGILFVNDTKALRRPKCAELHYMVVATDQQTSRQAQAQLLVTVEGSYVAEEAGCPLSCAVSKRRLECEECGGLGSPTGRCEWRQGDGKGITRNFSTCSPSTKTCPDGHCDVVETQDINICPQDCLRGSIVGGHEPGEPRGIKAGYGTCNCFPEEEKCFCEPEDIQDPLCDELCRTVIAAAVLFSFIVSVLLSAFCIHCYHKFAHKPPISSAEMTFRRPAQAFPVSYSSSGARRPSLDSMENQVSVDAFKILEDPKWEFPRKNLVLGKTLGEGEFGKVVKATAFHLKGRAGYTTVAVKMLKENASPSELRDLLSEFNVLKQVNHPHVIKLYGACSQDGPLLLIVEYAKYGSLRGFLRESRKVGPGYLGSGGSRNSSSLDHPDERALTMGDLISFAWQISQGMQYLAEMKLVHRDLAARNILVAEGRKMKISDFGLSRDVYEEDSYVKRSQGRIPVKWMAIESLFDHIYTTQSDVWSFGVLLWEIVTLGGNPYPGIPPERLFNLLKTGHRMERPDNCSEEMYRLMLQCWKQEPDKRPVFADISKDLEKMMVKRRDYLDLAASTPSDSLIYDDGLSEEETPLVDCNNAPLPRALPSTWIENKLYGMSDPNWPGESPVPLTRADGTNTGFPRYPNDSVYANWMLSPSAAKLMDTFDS

IC50 [1]: > 10 µM | inhibition at 0.1 µM ([1]; @0.1 uM): -1% | inhibition at 0.1 µM [2]: 3% | inhibition at 0.1 µM [3]: -3% | Kd [4]: 0.095 µM | inhibition at 0.1 µM [5]: 7% | inhibition at 0.1 µM [6]: 2% | inhibition at 0.1 µM [7]: 3% | IC50 [8]: > 10 µM | inhibition at 0.1 µM ([8]; @0.1 uM): 5% | inhibition at 0.1 µM [9]: 1% | inhibition at 0.1 µM [10]: -18% | inhibition at 0.1 µM [11]: 4% | inhibition at 0.1 µM [12]: 16% | inhibition at 0.1 µM [13]: 12% | inhibition at 0.1 µM [14]: 3% | inhibition at 0.1 µM [15]: 3%
SMILES: COc1ccc2c(c1)/C(=C/c1cnc(C3CCOCC3)[nH]1)C(=O)N2 [Compound 18, (3Z)-5-methoxy-3-[(2-tetrahydropyran-4-yl-1H-imidazol-5-yl)methylene]indolin-2-one]
